# From US20200155434A1, “SKIN CLEANSING COMPOSITION” (KAO CORPORATION, priority 2017, published 2020)
# What was measured:
# [1] = at 25° C.; cited from earlier work
# [2] = cited from earlier work
# [3] = Detergency against keratotic plug during cleansing (penetration and collapse under digital microscope); parameters: species or system human; conditions: Table 1 samples; for Penetration of the sample into keratotic plugs (in words): contact with sample for 1 minute; for Collapse of keratotic plugs in contact with the sample (in words): assumption of cleansing
# Method: Keratotic plugs in the nasal region were removed with “Biore Nose Pack (manufactured by Kao Corporation)”, the resulting keratotic plugs on the pack were gently taken out with tweezers.
# The resulting keratotic plugs were placed on a slide glass and were covered with a cover glass, and 0.05 mL of a sample was dropwise added to an edge of the cover glass. Consequently, the sample entered into the gap between the slide glass and the cover glass by capillary phenomenon and was brought into contact with the keratotic plugs. The contact of the keratotic plugs and the sample was recorded with a digital microscope (VHX-5000, manufactured by Keyence Corporation, magnification: 150×), and the penetration of the sample into the keratotic plugs and the collapse state of the keratotic plugs were evaluated after one minute from the contact of the keratotic plugs with the sample. The results of each evaluation are shown in the columns “Keratotic plug detergency (penetration)” and “Keratotic plug detergency (during cleansing)” in Tables. The measurements were performed at 25° C.
# The penetration was relatively evaluated by criteria with 11 ratings starting from the rating 1 “the sample hardly penetrated into the keratotic plug” to the rating 11 “the sample penetrated to the center of the keratotic plug”. The collapsibility by the detergency against keratotic plug was relatively evaluated by criteria with 11 ratings starting from the rating 1 “almost no change is observed in the external appearance of the keratotic plug” to the rating 11 “peeling or separation is observed in the area from the surface layer to the central portion of the keratotic plug (the initial appearance of the keratotic plug is not retained)”.
# [4] = Detergency against keratotic plug after washing with water; parameters: species or system human; conditions: sample substituted with water; Table 1 samples
# Method: After one minute from the contact of the keratotic plugs with the sample, Kimwipes (registered trademark) was brought into contact with an edge of the cover glass to remove the sample under the cover glass. Then, 0.05 mL of water was gradually dropwise added to an edge of the cover glass. The sample dropwise-added with water was recorded with the digital microscope, and the collapse state of the keratotic plugs was evaluated after one minute from the contact of the keratotic plugs with water according to the criteria for evaluating collapsibility of the keratotic plugs. The results of the evaluation are shown in the column “Keratotic plug detergency (during washing with water)” in Table. The measurements were performed at 25° C.
# [5] = test system: insoluble protein (seine protein); assay: Effect of suppressing protein aggregation; format: physicochemical; conditions: Table 1 sample
# Method: Thirty milliliters of a sample and 0.06 g of an insoluble protein (seine protein) were placed in a 35-mL standard glass bottle, and the concentration of the insoluble protein was adjusted to 0.2 mass % (test sample). Separately, a standard sample was prepared by using water instead of the sample and adjusting the concentration of the insoluble protein to 0.2 mass %. Subsequently, the standard glass bottles were sufficiently shaken and stirred up and down (shake width: 15 cm, 20 times at a rate of 5 times for 3 seconds) in a thermostatic chamber of 25° C. and were left to stand for 3 minutes. The precipitation state of the insoluble protein was then visually verified, and the ratio of the amount of the precipitated standard sample to the amount of the precipitated test sample (the height of the precipitate in each standard glass bottle was measured as the precipitation amount), (precipitation amount of standard sample)/(precipitation amount of test sample), was calculated. A higher ratio indicates a higher effect of suppressing protein aggregation.
compound,measurement,setting,value
"CC(C)(N)CO [AMP, 2-amino-2-methyl-1-propanol]",pKa,[1],9.72
same,Solubility in water (in words),[2],readily dissolved in water
"CC(N)(CO)CO [AMPD, 2-amino-2-methyl-1,3-propanediol]",pKa,[1],8.76
"NC(CO)(CO)CO [Tris, 2-amino-2-hydroxymethyl-1,3-propanediol]",Penetration of the sample into keratotic plugs (in words),[3],penetrated into keratotic plugs
same,Collapse of keratotic plugs during washing with water (in words),[4],further accelerating the collapse of keratotic plugs
same,pKa,[1],8.03
same,Solubility in water (in words),[2],readily dissolved in water
O=P([O-])([O-])O.[Na+].[Na+] [disodium hydrogen phosphate],Collapse of keratotic plugs in contact with the sample (in words),[3],collapse of the keratotic plugs did not progress
same,Penetration of the sample into keratotic plugs (in words),[3],hardly penetrated into keratotic plugs
same,Collapse of keratotic plugs during washing with water (in words),[4],collapse of keratotic plugs did not progress
O=C([O-])O.[Na+] [sodium hydrogen carbonate],Collapse of keratotic plugs in contact with the sample (in words),[3],collapse of the keratotic plugs did not progress
same,Penetration of the sample into keratotic plugs (in words),[3],hardly penetrated into keratotic plugs
same,Collapse of keratotic plugs during washing with water (in words),[4],collapse of keratotic plugs did not progress
O=P([O-])([O-])[O-].[Na+].[Na+].[Na+] [trisodium phosphate],Collapse of keratotic plugs in contact with the sample (in words),[3],collapse of the keratotic plugs did not progress
same,Penetration of the sample into keratotic plugs (in words),[3],hardly penetrated into keratotic plugs
same,Collapse of keratotic plugs during washing with water (in words),[4],collapse of keratotic plugs did not progress
sodium polyoxyethylene (2) lauryl ether sulfate [POE (2) sodium lauryl sulfate],Collapse of keratotic plugs in contact with the sample (in words),[3],collapse of the keratotic plugs did not progress
same,Penetration of the sample into keratotic plugs (in words),[3],hardly penetrated into the keratotic plugs
same,Action on proteins (in words),[5],dissolve the proteins
